Assay results as given in patent US8722665B2, “Cinnamido-pyrrolo[2,1-C][1,4]benzodiazepines as potential anticancer agents and process for the preparation thereof” (Council of Scientific & Industrial Research, priority 2008, dated 2014).

System: duplex-form calf thymus DNA (CT-DNA)
Experiment: Thermal denaturation studies with calf thymus DNA
Format: binding
Conditions: [PBD]:[DNA] molar ratio 1:5, CT-DNA 100 μM, ligand 20 μM, pH 7.00; for (ΔTm ° C.) after incubation at 37° C. for 0 h: 0 h incubation at 37° C.; for (ΔTm ° C.) after incubation at 37° C. for 18 h: 18 h incubation at 37° C.
Description: Compounds have been subjected to thermal denaturation studies with duplex-form calf thymus DNA (CT-DNA) using an modification of a reported procedure (Newman, M. S. Carcinog-compr. Surv. 1976, 1, 203; (b) Hecht, S. S.; Loy, M.; Hoffman, Carcinog-compr. Surv. 1976, 1, 325). Working solutions in aqueous buffer (10 mM NaH2PO4/Na2HPO4, 1 mM Na2EDTA, pH 7.00+0.01) containing CT-DNA (100 μm in phosphate) and the PBD (20 μm) have been prepared by addition of concentrated PBD solutions in DMSO to obtain a fixed [PBD]/[DNA] molar ratio of 1:5. The DNA-PBD solutions have been incubated at 37° C. for 0 and 18 h prior to analysis. Samples have been monitored at 260 nm using a Beckman DU-800 spectrophotometer fitted with high performance temperature controller, and heated at 1° C. min^−1 in the 40-110° C. range. DNA helix→coil transition temperatures (Tm) have been obtained from the maxima in the d(A260)/dT derivative plots. Drug-induced alterations in DNA melting behavior are given by: ΔTm=Tm(DNA+PBD)−Tm(DNA alone), where the Tm value for the PBD-free CT-DNA is 69.1±0.01.
The DNA binding activity for these Cinnamido-pyrrolo[2,1-c][1,4]benzodiazepines have been examined by thermal denaturation studies using calf thymus (CT) DNA. […] The data for the compounds 8b&d, 11b&d, 14b&d and 17b&d is included in Table 1 for comparison.

Row | Molecule | (ΔTm ° C.) after incubation at 37° C. for 0 h [°C] | (ΔTm ° C.) after incubation at 37° C. for 18 h [°C]
1 | 1,1′-{[(E-3-bis propoxy-3-methoxy phenyl)-1-4-piperzino]-2-propene-1-one}dioxy}bis(11aS)-7-methoxy-1,2,3,11a-tetrahydro-5H-pyrrolo[2,1-c][1,4]benzo diazepine-5-one [17b] | 4.0 | 5.1
2 | COc1cc(/C=C/C(=O)N2CCN(C(=O)c3cc(OC)c(OC)c(OC)c3)CC2)ccc1OCCCCCOc1cc2c(cc1OC)C(=O)N1CCC[C@H]1C=N2 [8d, 7-methoxy-8-{5-(2-methoxy-4-(E)-3-oxo-3-[4-(3,4,5-trimethoxybenzoyl)piperazino]-1-propenylphenoxy)pentyloxy}-(11aS)-2,3,5,11^a-tetrahydro-5H-pyrrolo[2,1-c][1,4]benzo-diazepine-5-one] | 1.5 | 2.5
3 | 1,1′-{[(E-3-bis pentyloxy-3-methoxy phenyl)-1-4-piperzino]-2-propene-1-one]dioxy}bis(11aS)-7-methoxy-1,2,3,11a-tetrahydro-5H-pyrrolo[2,1-c][1,4]benzo diazepine-5-one [17d] | 8.1 | 9.2
4 | COc1cc2c(cc1O)N=CC1CCCN1C2=O (stereo not shown) [DC-81, reference compound] | 0.3 | 0.7
5 | COc1cc(/C=C/C(=O)N2CCN(C)CC2)ccc1OCCCOc1cc2c(cc1OC)C(=O)N1CCC[C@H]1C=N2 [11b, 7-methoxy-8-(3-2-methoxy-4-[(E)-3-(4-methylpiperazino)-3-oxo-1-propenyl-phenoxy]propoxy)-(11aS)-2,3,5,11^a-tetrahydro-5H-pyrrolo[2,1-c][1,4]benzodiazepine-5-one] | 4.0 | 5.0
6 | COc1cc(/C=C/C(=O)N2CCN(C)CC2)ccc1OCCCCCOc1cc2c(cc1OC)C(=O)N1CCC[C@H]1C=N2 [11d, 7-methoxy-8-(5-2-methoxy-4-[(E)-3-(4-methylpiperazino)-3-oxo-1-propenyl-phenoxy]pentyloxy)-(11aS)-2,3,5,11^a-tetrahydro-5H-pyrrolo[2,1-c][1,4]benzodiazepine-5-one] | 7.9 | 8.8
7 | COc1cc(/C=C/C(=O)N2CCOCC2)ccc1OCCCOc1cc2c(cc1OC)C(=O)N1CCC[C@H]1C=N2 [14b, 7-methoxy-8-(3-2-methoxy-4-[(E)-3-morpholino-3-oxo-1-propenylphenoxy]propoxy)-(11aS)-2,3,5,11^a-tetrahydro-5H-pyrrolo[2,1-c][1,4]benzodiazepine-5-one] | 3.0 | 4.2
8 | COc1cc(/C=C/C(=O)N2CCOCC2)ccc1OCCCCCOc1cc2c(cc1OC)C(=O)N1CCC[C@H]1C=N2 [14d, 7-methoxy-8-(5-2-methoxy-4-[(E)-3-morpholino-3-oxo-1-propenylphenoxy]pentyloxy)-(11aS)-2,3,5,11^a-tetrahydro-5H-pyrrolo[2,1-c][1,4]benzodiazepine-5-one] | 7.1 | 8.2
